# “Also recorded” adds a separate entry of the source.
# Assays:
# [1] = cited from earlier work
# [2] = Drug absorption after drug pretreatment of PDMS / PDMS-PEG samples; assay type: physicochemical; settings: 1 week pretreatment, 100 μM
# [3] = 1-week drug absorption by PDMS / PDMS-PEG block copolymer plugs (UV-Vis); assay type: physicochemical; settings: 100 μM drug, 37° C.; for 1-week drug absorption with block copolymer versus PDMS: 1% and 2% BCP; for reduction of drug absorption by PDMS-PEG block copolymer additives: compared to PDMS
# Method: Plug size was chosen to be similar to many microfluidic devices. After 1 week, the drug concentration was measured using UV-Vis spectroscopy, the area under the curve (AUC) was calculated, and each value was compared to drug standards to determine the percent drug loss (FIG. 2A).
# PDMS-PEG Fabrication: PDMS was prepared as previously described in Scott, L. E., Mair, D. B., Narang, J. D., Feleke, K. & Lemmon, C. A. Fibronectin fibrillogenesis facilitates mechano-dependent cell spreading, force generation, and nuclear size in human embryonic fibroblasts. […] PDMS base was mixed with PDMS crosslinker at a […] for 5 minutes and was then degassed in a desiccator for 30 minutes. […] 8 mm plugs were taken using a biopsy punch and used in downstream experiments. This height/diameter was chosen to provide a surface to volume ratio of ˜0.2/mm, similar to that found in microfluidic devices.
# Drug absorption experimental setup: Samples were added to glass vials. A 1.5 mL volume of 100 μM pharmaceutical solution was added, and the samples were fully submerged in the solution. […] Experimental samples were compared to controls, in which drug was incubated for one week without a PDMS sample. The mean of the controls was taken as the total drug concentration without absorption, and the percent drug loss was calculated as
# UV-Vis: Following experimental absorption, 2 μL samples were measured (Nanodrop 2000, ThermoFisher Scientific). Measurements were taken in triplicate for each sample to decrease noise. […] The area under the curve was used to calculate the precent drug loss, compared to the AUC of the drug standards. Sample size equals three, with three independent measurements per sample.
# [4] = Drug absorption after drug pretreatment of PDMS / PDMS-PEG samples; assay type: physicochemical; settings: 24 hour pretreatment
# Method: We pretreated with 200 μM and 1 mM concentrations and 1 week of absorption was measured (FIG. 4A). […] For these experiments, we utilized a 24 hour pretreatment step.
# Drug Pretreatment: PDMS, 1% block copolymer, and 2% block copolymer samples were prepared as mentioned above. […] Pretreated samples were then transferred to a fresh 100 μM drug solution for one week of absorption, and absorption was assessed as described.
# [5] = cited from earlier work; remark: listed apart in the source
# [6] = tested on: engineered heart tissue (EHT); assay: Engineered heart tissue (Mantarray) twitch force dose response
# Text: We utilized the commercially available Mantarray (Curi Bio) engineered heart tissue (EHT) platform to perform these screens. In this platform, the EHT self assembles between two posts, one soft and bendable, and the other stiff and immovable (FIG. 6B). The soft post has an embedded magnet, and deflection of the post due to EHT contraction results in changes in magnetic flux. The tissues can be placed over magnetic sensor arrays in the Mantarray system to measure this change in flux and calculate the twitch forces and kinetics.
# After drug was allowed to absorb for 1 week, dose response curves were measured for each condition. […]
# Engineered Heart Tissue Fabrication: The Mantarray (Curi Bio) is a system designed for reproducible fabrication and functional measurements of EHTs in a 24-well plate format. […] Cardiomyocytes and HS27A stromal cells (ATCC) were lifted using 0.05% trypsin+EDTA, counted, and resuspended at 8.3 million cells/mL and 2.5 million cells/mL, respectively. […]
# EHT Dosing and Contractile Measurements: EHTs were fabricated as described above and paced to measure average force output. […] EHTs were paced at 5.0 V 1 Hz with a pulse duration of 10 milliseconds and average force output readings were recorded using a Mantarray for 60 seconds to give an initial mean force average. […] Percent reduction in twitch force following exposure to drug was then calculated using the equation
# [7] = 200 μM and 1 mM, PDMS, 1% and 2% BCP overall
smiles,measurement,setting,value
COCCc1ccc(OCC(O)CNC(C)C)cc1 (stereo not shown) [Metoprolol Succinate],Solubility in H2O,[1],1000 mg/mL
same,effect of pretreating with experimental dosages for 1 week on drug absorption,[2]; PDMS and PDMS-PEG BCP samples,no significant effect
same,1-week drug absorption with block copolymer versus PDMS,[3],significantly reduced
same,reduction of drug absorption by PDMS-PEG block copolymer additives,[3],97.2%
same,effect of pretreating with higher dosages on drug absorption,[4]; [7],significant reductions
same,effect of pretreating with higher dosages on drug absorption,"[4]; 200 μM, 2% BCP",significant increase in absorption; also recorded: increased
same,effect of pretreating with higher dosages on drug absorption,"[4]; 1 mM, PDMS",increased
same,effect of pretreating with higher dosages on drug absorption,"[4]; increasing dosage, 1% BCP",no significant change in absorption
same,effect of pretreating with higher dosages on drug absorption,"[4]; increasing dosage, PDMS",biphasic drug absorption pattern
CC(C)COCC(CN(Cc1ccccc1)c1ccccc1)N1CCCC1 (stereo not shown) [Bepridil],logP,[5],5.2
same,Solubility in H2O,[1],0.05655 mg/mL
same,effect of pretreating with experimental dosages for 1 week on drug absorption,[2]; PDMS only,significantly decreases bepridil absorption
same,1-week drug absorption with block copolymer versus PDMS,[3],no significant improvement
same,effect of pretreating with higher dosages on drug absorption,[4]; [7],significant reductions
same,effect of pretreating with higher dosages on drug absorption,"[4]; 1 mM, 2% BCP",significantly decreases absorption
same,effect of pretreating with higher dosages on drug absorption,"[4]; increasing dosage, 1% BCP","a decrease, followed by an increase in drug absorption; also recorded: increased"
same,effect of pretreating with higher dosages on drug absorption,"[4]; increasing dosage, PDMS","a decrease, followed by an increase in drug absorption; also recorded: increased"
COc1ccc(CCN(C)CCCC(C#N)(c2ccc(OC)c(OC)c2)C(C)C)cc1OC (stereo not shown) [Verapamil],IC50 of drug incubated with APC compared to control,[6]; drug incubated 1 week at 37° C. with APC (2% block copolymer-1 mM),not significantly different from control
same,IC50 of drug incubated with PDMS compared to control and APC,[6]; drug incubated 1 week at 37° C. with PDMS,significantly reduce the IC50 value
CC(C)(C)c1ccc(C(O)CCCN2CCC(C(O)(c3ccccc3)c3ccccc3)CC2)cc1 (stereo not shown) [Terfenadine],logP,[5],6.6
same,Solubility in H2O,[1],0.0963 mg/mL
same,effect of pretreating with experimental dosages for 1 week on drug absorption,[2]; PDMS and PDMS-PEG BCP samples,significantly decreases terfenadine absorption
same,1-week drug absorption with block copolymer versus PDMS,[3],significantly reduced
same,reduction of drug absorption by PDMS-PEG block copolymer additives,[3],61.8%
same,effect of pretreating with higher dosages on drug absorption,[4]; [7],further decrease terfenadine absorption; also recorded: significant reductions

# From patent publication US20260008048A1, “POLYSILOXANE-BASED DEVICES WITH REDUCED DRUG ABSORPTION CHARACTERISTICS” (THE JOHNS HOPKINS UNIVERSITY, priority 2022, published 2026)
